The CheMixHub viscosity set

Assay: xn = mol fraction of the nth substance listed

O=[N+]([O-])c1ccccc1 + Cc1ccccc1
viscosity [mPa·s], 101 kPa
Settings	x1 = 0.115	x1 = 0.227	x1 = 0.344	x1 = 0.457	x1 = 0.577	x1 = 0.675	x1 = 0.787	x1 = 0.87
298.15 K	0.622	0.702	0.803	0.894	1.03	1.169	1.374	1.542
303.15 K	0.586	0.66	0.743	0.837	0.956	1.08	1.252	1.42
308.15 K	0.554	0.618	0.694	0.783	0.922	1.042	1.157	1.313

CCCCCCC + CCO
Settings	viscosity [mPa·s]
293.15 K, 101 kPa, x1 = 0.1005	0.9853
293.15 K, 101 kPa, x1 = 0.202	0.8256
293.15 K, 101 kPa, x1 = 0.3022	0.7149
293.15 K, 101 kPa, x1 = 0.4016	0.6285
293.15 K, 101 kPa, x1 = 0.5079	0.567
293.15 K, 101 kPa, x1 = 0.5967	0.516
293.15 K, 101 kPa, x1 = 0.7041	0.4658
293.15 K, 101 kPa, x1 = 0.8008	0.4428
293.15 K, 101 kPa, x1 = 0.8935	0.423
298.15 K, 100 kPa, x1 = 0.0472	1.002
298.15 K, 100 kPa, x1 = 0.1004	0.9149
298.15 K, 100 kPa, x1 = 0.199	0.7776
298.15 K, 100 kPa, x1 = 0.3003	0.6663
298.15 K, 100 kPa, x1 = 0.3994	0.5825
298.15 K, 100 kPa, x1 = 0.507	0.5154
298.15 K, 100 kPa, x1 = 0.5988	0.4742
298.15 K, 100 kPa, x1 = 0.6751	0.449
298.15 K, 100 kPa, x1 = 0.7394	0.4327
298.15 K, 100 kPa, x1 = 0.8085	0.4191
298.15 K, 100 kPa, x1 = 0.9003	0.4048
298.15 K, 101 kPa, x1 = 0.1005	0.9069
298.15 K, 101 kPa, x1 = 0.202	0.7656
298.15 K, 101 kPa, x1 = 0.3022	0.6673
298.15 K, 101 kPa, x1 = 0.4016	0.5856
298.15 K, 101 kPa, x1 = 0.5079	0.5214
298.15 K, 101 kPa, x1 = 0.5967	0.4815
298.15 K, 101 kPa, x1 = 0.7041	0.4422
298.15 K, 101 kPa, x1 = 0.8008	0.4149
298.15 K, 101 kPa, x1 = 0.8935	0.4021
298.15 K, 101.33 kPa, x2 = 0.0831	0.413
298.15 K, 101.33 kPa, x2 = 0.1075	0.394
298.15 K, 101.33 kPa, x2 = 0.1985	0.426
298.15 K, 101.33 kPa, x2 = 0.1999	0.408
298.15 K, 101.33 kPa, x2 = 0.2981	0.444
298.15 K, 101.33 kPa, x2 = 0.3001	0.433
298.15 K, 101.33 kPa, x2 = 0.3932	0.465
298.15 K, 101.33 kPa, x2 = 0.4315	0.487
298.15 K, 101.33 kPa, x2 = 0.5009	0.517
298.15 K, 101.33 kPa, x2 = 0.5079	0.521
298.15 K, 101.33 kPa, x2 = 0.5973	0.584
298.15 K, 101.33 kPa, x2 = 0.6092	0.584
298.15 K, 101.33 kPa, x2 = 0.7009	0.653
298.15 K, 101.33 kPa, x2 = 0.7209	0.69
298.15 K, 101.33 kPa, x2 = 0.8165	0.766
298.15 K, 101.33 kPa, x2 = 0.8241	0.808
298.15 K, 101.33 kPa, x2 = 0.9	0.883
298.15 K, 101.33 kPa, x2 = 0.907	0.922
298.15 K, 101.33 kPa, x2 = 0.9744	1.039
303 K, 101.33 kPa, x2 = 0.3521	0.43
303 K, 101.33 kPa, x2 = 0.5917	0.566
303 K, 101.33 kPa, x2 = 0.7654	0.698
303 K, 101.33 kPa, x2 = 0.8969	0.863
303.15 K, 101 kPa, x1 = 0.1005	0.8186
303.15 K, 101 kPa, x1 = 0.202	0.695
303.15 K, 101 kPa, x1 = 0.3022	0.6164
303.15 K, 101 kPa, x1 = 0.4016	0.5429
303.15 K, 101 kPa, x1 = 0.5079	0.4865
303.15 K, 101 kPa, x1 = 0.5967	0.4506
303.15 K, 101 kPa, x1 = 0.7041	0.4154
303.15 K, 101 kPa, x1 = 0.8008	0.3953
303.15 K, 101 kPa, x1 = 0.8935	0.3827
308.15 K, 101 kPa, x1 = 0.1005	0.7535
308.15 K, 101 kPa, x1 = 0.202	0.6432
308.15 K, 101 kPa, x1 = 0.3022	0.5695
308.15 K, 101 kPa, x1 = 0.4016	0.5077
308.15 K, 101 kPa, x1 = 0.5079	0.4521
308.15 K, 101 kPa, x1 = 0.5967	0.4271
308.15 K, 101 kPa, x1 = 0.7041	0.3957
308.15 K, 101 kPa, x1 = 0.8008	0.3691
308.15 K, 101 kPa, x1 = 0.8935	0.3633
313 K, 101.33 kPa, x2 = 0.3521	0.38
313 K, 101.33 kPa, x2 = 0.5917	0.483
313 K, 101.33 kPa, x2 = 0.7654	0.587
313 K, 101.33 kPa, x2 = 0.8969	0.719
323 K, 101.33 kPa, x2 = 0.3521	0.337
323 K, 101.33 kPa, x2 = 0.5917	0.417
323 K, 101.33 kPa, x2 = 0.7654	0.5
323 K, 101.33 kPa, x2 = 0.8969	0.606

CC(=O)OC1CCCCC1 + CCCCCCCCCCO
viscosity [mPa·s], 101 kPa
Settings	300 K	310 K	320 K
x2 = 0.0746	2.01	1.65	1.38
x2 = 0.1275	2.11	1.72	1.43
x2 = 0.184	2.26	1.82	1.51
x2 = 0.2015	2.3	1.86	1.55
x2 = 0.2425	2.42	1.95	1.6
x2 = 0.2741	2.54	2.03	1.66
x2 = 0.4169	3.15	2.47	1.98
x2 = 0.4886	3.61	2.81	2.23
x2 = 0.6055	4.41	3.35	2.62
x2 = 0.6993	5.27	3.95	3.04
x2 = 0.8435	7.56	5.49	4.1
x2 = 0.8806	8.17	5.85	4.37

O=[N+]([O-])c1ccccc1 + CCCCO
viscosity [mPa·s]
Settings	298.15 K	303.15 K	308.15 K	318.15 K
101 kPa, x1 = 0.2	–	–	1.58	1.27
101 kPa, x1 = 0.4	–	–	1.411	1.128
101 kPa, x1 = 0.6	–	–	1.339	1.109
101 kPa, x1 = 0.8	–	–	1.35	1.147
101 kPa, x1 = 0.9	–	–	1.403	1.196
101 kPa, x1 = 0.95	–	–	1.453	1.252
101.33 kPa, x1 = 0.0625	2.311	2.075	–	–
101.33 kPa, x1 = 0.1311	2.142	1.878	–	–
101.33 kPa, x1 = 0.2051	1.954	1.739	–	–
101.33 kPa, x1 = 0.2885	1.814	1.611	–	–
101.33 kPa, x1 = 0.376	1.711	1.559	–	–
101.33 kPa, x1 = 0.4747	1.65	1.423	–	–
101.33 kPa, x1 = 0.5846	1.589	1.446	–	–
101.33 kPa, x1 = 0.7007	1.625	1.476	–	–
101.33 kPa, x1 = 0.8442	1.658	1.509	–	–

CCCCCO + OCCO
293.15 K, 101.33 kPa
Settings	viscosity [mPa·s]
x2 = 0.0857	4.274
x2 = 0.1963	4.916
x2 = 0.2991	5.66
x2 = 0.3697	6.324
x2 = 0.4694	7.484
x2 = 0.5395	8.676
x2 = 0.5964	9.655
x2 = 0.713	12.32
x2 = 0.7884	14.03
x2 = 0.8506	15.9
x2 = 0.9407	18.94
